Measurements published in ChEMBL document CHEMBL1156378, “A new dimeric stilbene with tyrosinase inhibitiory activity from Artocarpus gomezianus” (J Nat Prod, 2001).

Target: T1, Tyrosinase (Agaricus bisporus, UniProt O42713)
T1 sequence (O42713 whole entry): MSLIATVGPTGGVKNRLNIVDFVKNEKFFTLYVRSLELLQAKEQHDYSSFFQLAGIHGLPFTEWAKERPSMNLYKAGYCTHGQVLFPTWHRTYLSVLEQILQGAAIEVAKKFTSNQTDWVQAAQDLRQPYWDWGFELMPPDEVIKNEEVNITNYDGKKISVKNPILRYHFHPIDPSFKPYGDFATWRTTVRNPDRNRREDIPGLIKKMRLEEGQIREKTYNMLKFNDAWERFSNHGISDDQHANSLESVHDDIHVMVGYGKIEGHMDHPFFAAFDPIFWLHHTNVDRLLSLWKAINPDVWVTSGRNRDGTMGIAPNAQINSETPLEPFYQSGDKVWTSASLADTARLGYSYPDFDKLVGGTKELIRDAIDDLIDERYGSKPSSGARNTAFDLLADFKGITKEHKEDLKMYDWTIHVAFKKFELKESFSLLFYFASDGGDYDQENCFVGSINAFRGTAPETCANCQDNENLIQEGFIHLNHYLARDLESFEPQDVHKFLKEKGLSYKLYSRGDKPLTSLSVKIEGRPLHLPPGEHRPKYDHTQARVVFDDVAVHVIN
Description: Inhibition of mushroom tyrosinase

| IC50 | SMILES |
| --- | --- |
| 39 µM | Oc1cc(O)cc(CC(c2ccc(O)cc2O)c2c(O)cc(/C=C/c3ccc(O)cc3O)cc2O)c1 (configuration not stated) [ANDALASIN A] |
| 68 µM | Oc1cc(O)cc(/C=C/c2cc(C(Cc3cc(O)cc(O)c3)c3ccc(O)cc3O)c(O)cc2O)c1 (configuration not stated) [ARTOGOMEZIANOL] |
